What was measured:
Assay in all cases: relative viability (nuclei count vs DMSO), 5 days (fraction); higher = more cells survive
CUDC-101 + Phenformin = compound: C#Cc1cccc(Nc2ncnc3cc(OC)c(OCCCCCCC(=O)NO)cc23)c1 [CUDC-101] + N=C(N)NC(=N)NCCc1ccccc1 [Phenformin] (partner 250 µM)
Procedure, shortened: (§1)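 Lung cancer cell lines in 1536-well plates were dosed by pin tool the day after seeding, either with one drug alone or with a fixed anchor-drug dose plus five library-drug doses (not always all listed) in √10 steps. After 5 days, cells were fixed and their nuclei stained in one step (final 0.05% Triton X-100, 1% formaldehyde, 1 ug/ml Hoechst), then counted on 4× images. Relative viability is the nuclei count in treated wells divided by that in vehicle wells. Values are medians of duplicate plates.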

[1] = compound: C1=CC=C2C(=C1)N=C(S2)C(C#N)C3=NC(=NC=C3)NCCC4=CN=CC=C4 + O=C(CCCCCCC(=O)Nc1ccccc1)NO [Vorinostat] (partner 1 µM)
Procedure, shortened: as §1

Vandetanib + Pictilisib = compound: COc1cc2/c(=N/c3ccc(Br)cc3F)nc[nH]c2cc1OCC1CCN(C)CC1 [Vandetanib] + CS(=O)(=O)N1CCN(Cc2cc3nc(-c4cccc5[nH]ncc45)nc(N4CCOCC4)c3s2)CC1 [Pictilisib] (partner 1 µM)
Procedure, shortened: as §1

Vandetanib + AZD7762 = compound: COc1cc2/c(=N/c3ccc(Br)cc3F)nc[nH]c2cc1OCC1CCN(C)CC1 [Vandetanib] + NC(=O)Nc1cc(-c2cccc(F)c2)sc1C(=O)N[C@H]1CCCNC1 [AZD7762] (partner 0.2 µM)
Procedure, shortened: as §1

Cell Line	relative viability (CUDC-101 + Phenformin; first compound 0.01 µM)	relative viability (CUDC-101 + Phenformin; first compound 0.03162 µM)	relative viability (CUDC-101 + Phenformin; first compound 0.1 µM)	relative viability (CUDC-101 + Phenformin; first compound 0.3162 µM)	relative viability (CUDC-101 + Phenformin; first compound 1 µM)	relative viability ([1]; first compound 0.005 µM)	relative viability ([1]; first compound 0.01581 µM)	relative viability ([1]; first compound 0.05 µM)	relative viability ([1]; first compound 0.1581 µM)	relative viability ([1]; first compound 0.5 µM)	relative viability (Vandetanib + Pictilisib; first compound 0.02 µM)	relative viability (Vandetanib + Pictilisib; first compound 0.06325 µM)	relative viability (Vandetanib + Pictilisib; first compound 0.2 µM)	relative viability (Vandetanib + Pictilisib; first compound 0.6325 µM)	relative viability (Vandetanib + Pictilisib; first compound 2 µM)	relative viability (Vandetanib + AZD7762; first compound 0.02 µM)	relative viability (Vandetanib + AZD7762; first compound 0.06325 µM)	relative viability (Vandetanib + AZD7762; first compound 0.2 µM)	relative viability (Vandetanib + AZD7762; first compound 0.6325 µM)	relative viability (Vandetanib + AZD7762; first compound 2 µM)
201T	0.438	0.442	0.424	0.411	0.358	0.819	0.918	0.949	0.997	0.959	0.663	0.648	0.652	0.706	0.692	0.675	0.62	0.626	0.588	0.614
A-427	0.328	0.347	0.464	0.502	0.389	0.9	0.86	0.811	0.902	0.887	0.676	0.626	0.762	0.674	0.777	0.684	0.674	0.719	0.62	0.61
ABC-1	0.256	0.256	0.212	0.247	0.186	1.13	–	1.03	1.33	0.985	0.794	0.673	0.866	0.664	0.765	0.871	0.901	–	0.726	0.773
BEN	0.29	0.259	0.239	0.256	0.209	0.496	0.58	0.548	0.643	0.577	0.576	0.49	0.585	0.646	0.538	0.69	0.622	0.585	0.633	0.661
CAL-12T	0.67	0.563	0.617	0.616	0.513	0.572	0.873	0.973	0.814	0.725	0.436	0.412	0.398	0.398	0.311	0.676	0.611	0.631	0.643	0.574
ChaGo-K-1	0.467	0.542	0.508	0.558	0.41	0.584	0.809	0.702	0.863	0.724	0.632	0.713	0.619	0.87	0.28	0.878	0.886	0.893	0.816	0.896
EKVX	0.255	0.229	0.211	0.244	0.222	0.506	0.731	0.677	0.821	0.741	0.404	0.396	0.404	0.363	0.213	0.693	0.692	0.611	0.694	0.547
EMC-BAC-2	0.616	0.472	0.549	0.487	0.365	0.491	0.299	0.48	0.476	0.411	0.556	0.51	0.358	0.484	0.538	1.08	1.08	1.12	1.11	0.973
EPLC-272H	0.279	0.297	0.201	0.136	0.114	–	0.519	0.451	0.395	0.178	0.363	0.311	0.121	0.355	0.166	0.23	0.428	0.244	0.201	0.189
H3255	0.367	0.322	–	0.31	0.166	0.792	0.729	0.745	0.988	0.84	0.469	0.392	0.386	0.263	0.126	0.898	0.812	0.824	0.636	0.377
HARA	0.4	0.397	0.476	0.501	0.248	0.663	0.718	0.559	0.59	0.614	0.385	0.248	0.337	0.369	0.392	0.262	0.448	0.396	0.18	0.312
HCC-15	0.434	0.432	0.521	0.556	0.376	0.959	0.971	0.816	0.851	0.775	0.795	0.678	0.696	0.767	0.796	1.29	1.04	1.18	1.33	1.15
HCC-44	0.163	0.185	0.22	0.185	0.139	1.19	1.14	1.09	1.15	1.02	0.58	0.543	0.556	0.613	0.634	0.982	1.04	1.11	1.03	1.04
HCC-78	0.709	0.705	0.675	0.602	0.246	0.485	0.391	0.509	0.524	0.42	0.192	0.294	0.234	0.231	0.189	0.591	0.669	0.596	0.645	0.609
HCC-366	0.604	0.555	0.704	0.667	0.64	0.336	0.361	0.385	0.519	0.365	0.146	0.141	0.202	0.112	0.112	0.205	0.317	0.284	0.243	0.286
HCC-827	0.376	0.18	0.161	0.143	0.14	0.675	0.931	0.838	1.07	0.922	0.816	1.02	0.864	0.664	0.355	0.211	0.204	0.165	0.126	0.124

From the supplement of paper PMC10307832
